Type in all cases: biochemical
The target in assay [1] is T1, human thrombin (Homo sapiens, UniProt P00734).
T1 construct: purchased Sigma
The assay can be described thus: Inhibition of thrombin (fibrin formation from fibrinogen, 405 nm). The conditions noted are these: human thrombin 0.7 nM, fibrinogen substrate, 20° C., compared with control without product; read-out: concentration inhibiting the enzymatic activity of thrombin by 50% (IC50). As for the experimental part: For in vitro evaluation of the inhibitory activity of the products of the invention on human thrombin (Sigma, specific activity 3230 NIH units/mg), purified human fibrinogen ([…], Stago) (Fg) was added to a given amount of thrombin (0.7 nM) that had previously been incubated with or without the inhibitor to be tested (20° C., 10 minutes).
Inhibitors, enzymes and substrates are diluted in the same buffer (0.01 mM phosphate buffer, pH 7.4, containing 0.12M sodium chloride and 0.05% bovine serum albumin) and then distributed in a polystyrene microtitre plate in a volume of 50 μl.
The fibrin formed by the thrombin or by the paranitroanilide released by the action of the serine protease is measured spectrophotometrically at 405 nm after from 15 to 30 minutes' reaction at 20° C.

Assay [2] has as its system human plasma samples (thrombin time). The experiment in a line: Anti-coagulant activity, thrombin time (TT) in human plasma. The note with it: concentration that doubles the thrombin time, 37° C. As for the experimental part:
(§1) In order to evaluate the anti-coagulant activity of the compounds of the invention, the thrombin time (TT) and the activated cephalin time (ACT) were determined in human plasma samples. An ST4 coagulometer was used. A plasma deficient in platelets is lyophilised and taken up in distilled water. The TT is obtained using the reagent Thrombine Prest and the ACT is obtained using the reagent Céphaline PTT Automate. Inhibitor or solvent (10 μl) is added to the plasma (90 μl), which is then incubated for 2 minutes at 37° C. 100 μl of Thrombine Prest (TT) or of Céphaline PTT Automate (ACT) are added and at the same time the timer is started.
(§2) Under those conditions, the TT is of the order of 18 seconds and the ACT of the order of 12 seconds. The activity of an antagonist is evaluated by its capacity to prolong the TT and the ACT relative to the control. The effect of the inhibitors is expressed by the concentration in μM that doubles the coagulation time (Ctt2).

Assay [3] concerns human plasma samples (activated cephalin time). The assay can be described thus: Anti-coagulant activity, activated cephalin time (ACT) in human plasma. The conditions noted are these: concentration that doubles the activated cephalin time, 37° C. As for the experimental part: as §1, §2

pIC50: −log10 of the molar value. Where a name gives a salt, the structure may show the parent alone.

As for `NC(=NO)c1ccc(CNC(=O)[C@@H]2CCc3cnc(NCC(c4ccccc4)c4ccccc4)c(=O)n32)cc1` [Example 1, (6S)-N-{4-[amino(hydroxyimino)methyl]benzyl}-3-[(2,2-diphenyl-ethyl)amino]-4-oxo4,6,7,8-tetrahydropyrrolo[1,2-a]pyrazine-6-carboxamide], the pIC50 in assay [1] was 6.85.

With `NC(=NO)c1ccc(CNC(=O)[C@@H]2CCc3cnc(NCCc4ccccn4)c(=O)n32)cc1` [Example 2, (6S)-N-{4-[amino(hydroxyimino)methyl]benzyl}-4-oxo-3-{(2-(2-pyridyl)ethyl]amino}-4,6,7,8-tetrahydropyrrolo[1,2-a]pyrazine-6-carboxamide], in assay [1], the pIC50 is 6.51. Besides, the “TT Ctt2” value in assay [2] was 3.6 µM. The “ACT Ctt2” value in assay [3] is 20 µM.

Regarding `N=C(N)NOCCNC(=O)[C@@H]1CCc2cnc(NCC(c3ccccc3)c3ccccc3)c(=O)n21` [Example 3, (6S)-N-[2-({[amino(imino)methyl]amino}oxy)ethyl]-3-[(2,2-diphenyl-ethyl)amino]-4-oxo4,6,7,8-tetrahydropyrrolo[1,2-a]pyrazine-6-carboxamide dihydrochloride], the pIC50 in assay [1] is 8.40.

Turning to `O=C(NCc1ccccc1OCc1ccccn1)[C@@H]1CCc2cnc(NCCc3ccccn3)c(=O)n21` [Example 10, (6S)-4-oxo-3-{[2-(2-pyridyl)ethyl]amino}-N-[2-(2-pyridylmethoxy)-benzyl]-4,6,7,8-tetrahydropyrrolo[1,2-a]pyrazine-6-carboxamide], in assay [1], the pIC50 was 6.87.

In the case of `O=C(NCc1ccccc1OCC1=NCCN1)[C@@H]1CCc2cnc(NCCc3ccccn3)c(=O)n21` [Example 15, (6S)-N-[2-(4,5-dihydro-1H-imidazol-2-ylmethoxy)benzyl]4-oxo-3-{[2-(2-pyridyl)ethyl]amino}-4,6,7,8-tetrahydropyrrolo[1,2-a]-pyrazine-6-carboxamide], the pIC50 in assay [1] was 7.92. Also, the “TT Ctt2” value in assay [2] was 0.19 µM. For the same molecule, the “ACT Ctt2” value in assay [3] stood at 1.91 µM.

In the case of `Nc1noc2cc(CNC(=O)[C@@H]3CCc4cnc(NCCc5ccccn5)c(=O)n43)ccc12` [Example 17], in assay [1], the pIC50 is 6.85.

Consider `O=C(NCc1ccc2cc[nH]c2c1)[C@@H]1CCc2cnc(NCCc3ccccn3)c(=O)n21` [Example 18, (6S)-N-[1H-indol-6-ylmethyl)-4-oxo-3-{[2-(2-pyridyl)ethyl]amino}-4,6,7,8-tetrahydropyrrolo[1,2-a]pyrazine-6-carboxamide], for which the pIC50 in assay [1] was 7.66. In addition, in assay [2], the “TT Ctt2” value turned out to be 0.28 µM. For the same molecule, the “ACT Ctt2” value in assay [3] came to 3.07 µM.
